Measurements as given in US20230081426A1, “COMPOUNDS AND METHODS FOR KRAS MODULATION AND INDICATIONS THEREFOR” (Plexxikon Inc., priority 2020, published 2023).

Tests used:
[1] = target: T1, G12D-mutant human KRAS (amino acid residues 1-188) (Homo sapiens, UniProt P01116, G12D); test: KRAS Binding Disruption Assay (AlphaScreen; biotinylated KRpep-2d analogue or RAF1-RBD), G12D; settings: KRAS G12D; geometric mean; read-out: KRAS GMean IC50 (uM) MUTATION: G12D
T1 construct: G12D or G12C-mutant human KRAS (amino acid residues 1-188) with FLAG tag; made in house; host or cells: E. coli
Method in brief: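 Mutant KRAS (5-20 nM) incubated 1 h at 25° C with test compound and 5-20 nM biotinylated KRpep-2d analogue or RAF1-RBD in 20 mM HEPES pH 7.5, 100 mM NaCl, 5 mM MgCl2, 0.01% Tween-20, 0.01% BSA.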

[2] = target: T2, G12V-mutant human KRAS (amino acid residues 1-188) (Homo sapiens, UniProt P01116, G12V); test: KRAS Binding Competition Assay (AlphaScreen; biotinylated KRpep-2d analogue), G12V; settings: geometric mean, read-out: KRAS GMean IC50 (uM) MUTATION: G12V
T2 construct: G12V-mutant human KRAS (amino acid residues 1-188) with FLAG tag was purified from E. coli; made in house; host or cells: E. coli

| Compound | IC50 [1] | IC50 [2] |
| --- | --- | --- |
| CN1CCC[C@H]1COc1nc(N2C[C@H]3CC[C@@H](C2)N3)c2ccc(-c3c[nH]c4ccc(Cl)cc34)cc2n1 [P-0253, 4-((1R,5S)-3,8-diazabicyclo[3.2.1]octan-3-yl)-7-(5-chloro-1H-indol-3-yl)-2-(((S)-1-methylpyrrolidin-2-yl)methoxy)quinazoline] | 10 to 100 µM | 100 to 1000 µM |
| CN1CCC[C@H]1COc1nc(N2C[C@H]3CC[C@@H](C2)N3)c2ccc(-c3c[nH]c4ccccc34)cc2n1 [P-0254, 4-((1R,5S)-3,8-diazabicyclo[3.2.1]octan-3-yl)-7-(1H-indol-3-yl)-2-(((S)-1-methylpyrrolidin-2-yl)methoxy)quinazoline] | 10 to 100 µM | 10 to 100 µM |
| CN1CCC[C@H]1COc1nc(N2C[C@H]3CC[C@@H](C2)N3)c2ccc(-c3c[nH]c4cccc(Cl)c34)cc2n1 [P-0255, 4-((1R,5S)-3,8-diazabicyclo[3.2.1]octan-3-yl)-7-(4-chloro-1H-indol-3-yl)-2-(((S)-1-methylpyrrolidin-2-yl)methoxy)quinazoline] | 10 to 100 µM | 10 to 100 µM |
| CN1CCC[C@H]1COc1nc(N2[C@@H]3CC[C@H]2CNC3)c2ccc(-c3cccc4ccccc34)cc2n1 [P-0257, 4-((1R,5S)-3,8-diazabicyclo[3.2.1]octan-8-yl)-2-(((S)-1-methylpyrrolidin-2-yl)methoxy)-7-(naphthalen-1-yl)quinazoline] | 10 to 100 µM | 10 to 100 µM |
| CN1CCC[C@H]1COc1nc(N2[C@@H]3CC[C@H]2CNC3)c2ccc(-c3ccc4ccccc4c3)cc2n1 [P-0258, 4-((1R,5S)-3,8-diazabicyclo[3.2.1]octan-8-yl)-2-(((S)-1-methylpyrrolidin-2-yl)methoxy)-7-(naphthalen-2-yl)quinazoline] | 10 to 100 µM | 10 to 100 µM |

The next lines start with the values.

| IC50 [1] | IC50 [2] | Compound |
| --- | --- | --- |
| 0.0001 to 10 µM | 10 to 100 µM | CN1CC[C@@H](NC(=O)N2[C@H]3CC[C@@H]2CN(c2nc(OC[C@@H]4CCCN4C)nc4c(F)c(-c5cc(O)cc6ccccc56)ccc24)CC3)C1 [P-0246, (1R,6S)-3-(8-fluoro-7-(3-hydroxynaphthalen-1-yl)-2-(((S)-1-methylpyrrolidin-2-yl)methoxy)quinazolin-4-yl)-N-((R)-1-methylpyrrolidin-3-yl)-3,9-diazabicyclo[4.2.1]nonane-9-carboxamide] |
| 10 to 100 µM | 10 to 100 µM | CN1CCN(CCCC(=O)N2C3CCC2CN(c2nc(OC[C@@H]4CCCN4C)nc4c(F)c(-c5cc(O)cc6ccccc56)ccc24)CC3)CC1 (stereo partly drawn) [P-0247, 1-(3-(8-fluoro-7-(3-hydroxynaphthalen-1-yl)-2-(((S)-1-methylpyrrolidin-2-yl)methoxy)quinazolin-4-yl)-3,9-diazabicyclo[4.2.1]nonan-9-yl)-4-(4-methylpiperazin-1-yl)butan-1-one] |
| 10 to 100 µM | 0.0001 to 10 µM | CN1CCC[C@H]1COc1nc(N2CC[C@@H]3CC[C@H](C2)N3C(=O)NC2CCOC2)c2ccc(-c3cc(O)cc4ccccc34)c(F)c2n1 (stereo partly drawn) [P-0248, (1R,6 S)-3-(8-fluoro-7-(3-hydroxynaphthalen-1-yl)-2-(((S)-1-methylpyrrolidin-2-yl)methoxy)quinazolin-4-yl)-N-(tetrahydrofuran-3-yl)-3,9-diazabicyclo[4.2.1]nonane-9-carboxamide] |
| 0.0001 to 10 µM | 0.0001 to 10 µM | CN1CC[C@@H](NC(=O)N2C3COCC2CN(c2nc(OC[C@@H]4CCCN4C)nc4c(F)c(-c5cc(O)cc6ccccc56)ccc24)C3)C1 [P-0250, 7-(8-fluoro-7-(3-hydroxynaphthalen-1-yl)-2-(((S)-1-methylpyrrolidin-2-yl)methoxy)quinazolin-4-yl)-N-((R)-1-methylpyrrolidin-3-yl)-3-oxa-7,9-diazabicyclo[3.3.1]nonane-9-carboxamide] |
| 10 to 100 µM | 10 to 100 µM | CN1CCN(CCCC(=O)N2C3COCC2CN(c2nc(OC[C@@H]4CCCN4C)nc4c(F)c(-c5cc(O)cc6ccccc56)ccc24)C3)CC1 [P-0252, 1-(7-(8-fluoro-7-(3-hydroxynaphthalen-1-yl)-2-(((S)-1-methylpyrrolidin-2-yl)methoxy)quinazolin-4-yl)-3-oxa-7,9-diazabicyclo[3.3.1]nonan-9-yl)-4-(4-methylpiperazin-1-yl)butan-1-one] |
